Data reported in the supplement of paper PMC10307832.

Experiments:
Test in all cases: relative viability (nuclei count vs DMSO), 5 days (fraction); higher = more cells survive
[1] = test system: NCI-H1355
Procedure, shortened: (§1)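 Lung cancer cell lines were pin-tool dosed in 1536-well plates on the day after seeding, with either a lone drug or a fixed anchor-drug dose plus five library-drug doses (not always all listed) in √10 steps. Nuclei were counted on 4× images after 5 days. Relative viability is the ratio of treated-well to vehicle-well nuclei counts, with each value a median of duplicate plates.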

[2] = test system: LK-2
Procedure, shortened: as §1

[3] = test system: NCI-H1944
Procedure, shortened: as §1

[4] = test system: PC-3 [JPC-3]
Procedure, shortened: as §1

[5] = test system: NCI-H838
Procedure, shortened: as §1

[6] = test system: NCI-H650
Procedure, shortened: as §1

[7] = test system: NCI-H661
Procedure, shortened: as §1

[8] = test system: ChaGo-K-1
Procedure, shortened: as §1

[9] = test system: BEN
Procedure, shortened: as §1

[10] = test system: NCI-H1975
Procedure, shortened: as §1

[11] = test system: LU99A
Procedure, shortened: as §1

[12] = test system: LXF-289
Procedure, shortened: as §1

[13] = test system: NCI-H2342
Procedure, shortened: as §1

[14] = test system: NCI-H2087
Procedure, shortened: as §1

[15] = test system: LC-2-ad
Procedure, shortened: as §1

[16] = test system: SK-MES-1
Procedure, shortened: as §1

[17] = test system: NCI-H1651
Procedure, shortened: as §1

[18] = test system: NCI-H596
Procedure, shortened: as §1

[19] = test system: NCI-H1666
Procedure, shortened: as §1

[20] = test system: LCLC-97TM1
Procedure, shortened: as §1

[21] = test system: HCC-78
Procedure, shortened: as §1

[22] = test system: NCI-H358
Procedure, shortened: as §1

SMILES: Cc1sc2c(c1C)C(c1ccc(Cl)cc1)=N[C@@H](CC(=O)OC(C)(C)C)c1nnc(C)n1-2 [JQ1] + Cc1nc(Nc2ncc(C(=O)Nc3c(C)cccc3Cl)s2)cc(N2CCN(CCO)CC2)n1 [Dasatinib] (partner 0.075 µM)
- relative viability ([1]; first compound 0.04 µM): 0.774
- relative viability ([1]; first compound 0.1265 µM): 0.578
- relative viability ([1]; first compound 0.4 µM): 0.617
- relative viability ([1]; first compound 1.265 µM): 0.486
- relative viability ([1]; first compound 4 µM): 0.447
- relative viability ([2]; first compound 0.04 µM): 0.254
- relative viability ([2]; first compound 0.1265 µM): 0.156
- relative viability ([2]; first compound 0.4 µM): 0.162
- relative viability ([2]; first compound 1.265 µM): 0.108
- relative viability ([2]; first compound 4 µM): 0.112
- relative viability ([3]; first compound 0.04 µM): 0.202
- relative viability ([3]; first compound 0.1265 µM): 0.14
- relative viability ([3]; first compound 0.4 µM): 0.204
- relative viability ([3]; first compound 1.265 µM): 0.179
- relative viability ([3]; first compound 4 µM): 0.214
- relative viability ([4]; first compound 0.04 µM): 0.998
- relative viability ([4]; first compound 0.1265 µM): 1.02
- relative viability ([4]; first compound 0.4 µM): 1.16
- relative viability ([4]; first compound 1.265 µM): 0.96
- relative viability ([4]; first compound 4 µM): 0.578
- relative viability ([5]; first compound 0.04 µM): 0.294
- relative viability ([5]; first compound 0.1265 µM): 0.217
- relative viability ([5]; first compound 0.4 µM): 0.264
- relative viability ([5]; first compound 1.265 µM): 0.229
- relative viability ([5]; first compound 4 µM): 0.201
- relative viability ([6]; first compound 0.04 µM): 0.462
- relative viability ([6]; first compound 0.1265 µM): 0.301
- relative viability ([6]; first compound 0.4 µM): 0.328
- relative viability ([6]; first compound 1.265 µM): 0.277
- relative viability ([6]; first compound 4 µM): 0.244
- relative viability ([7]; first compound 0.04 µM): 0.814
- relative viability ([7]; first compound 0.1265 µM): 0.564
- relative viability ([7]; first compound 0.4 µM): 0.558
- relative viability ([7]; first compound 1.265 µM): 0.379
- relative viability ([7]; first compound 4 µM): 0.556
- relative viability ([8]; first compound 0.04 µM): 0.663
- relative viability ([8]; first compound 0.1265 µM): 0.462
- relative viability ([8]; first compound 0.4 µM): 0.44
- relative viability ([8]; first compound 1.265 µM): 0.485
- relative viability ([8]; first compound 4 µM): 0.397
- relative viability ([9]; first compound 0.04 µM): 0.302
- relative viability ([9]; first compound 0.1265 µM): 0.307
- relative viability ([9]; first compound 0.4 µM): 0.309
- relative viability ([9]; first compound 1.265 µM): 0.274
- relative viability ([9]; first compound 4 µM): 0.217
- relative viability ([10]; first compound 0.04 µM): 0.414
- relative viability ([10]; first compound 0.1265 µM): 0.316
- relative viability ([10]; first compound 0.4 µM): 0.305
- relative viability ([10]; first compound 1.265 µM): 0.227
- relative viability ([10]; first compound 4 µM): 0.241
- relative viability ([11]; first compound 0.04 µM): 0.551
- relative viability ([11]; first compound 0.1265 µM): 0.378
- relative viability ([11]; first compound 0.4 µM): 0.603
- relative viability ([11]; first compound 1.265 µM): 0.207
- relative viability ([11]; first compound 4 µM): 0.206
- relative viability ([12]; first compound 0.04 µM): 0.283
- relative viability ([12]; first compound 0.1265 µM): 0.117
- relative viability ([12]; first compound 0.4 µM): 0.212
- relative viability ([12]; first compound 1.265 µM): 0.156
- relative viability ([12]; first compound 4 µM): 0.152
- relative viability ([13]; first compound 0.04 µM): 0.315
- relative viability ([13]; first compound 0.1265 µM): 0.304
- relative viability ([13]; first compound 0.4 µM): 0.328
- relative viability ([13]; first compound 1.265 µM): 0.286
- relative viability ([13]; first compound 4 µM): 0.299
- relative viability ([14]; first compound 0.04 µM): 0.781
- relative viability ([14]; first compound 0.1265 µM): 0.774
- relative viability ([14]; first compound 0.4 µM): 0.466
- relative viability ([14]; first compound 1.265 µM): 0.414
- relative viability ([14]; first compound 4 µM): 0.324
- relative viability ([15]; first compound 0.04 µM): 0.505
- relative viability ([15]; first compound 0.1265 µM): 0.472
- relative viability ([15]; first compound 0.4 µM): 0.219
- relative viability ([15]; first compound 1.265 µM): 0.178
- relative viability ([15]; first compound 4 µM): 0.191
- relative viability ([16]; first compound 0.04 µM): 0.338
- relative viability ([16]; first compound 0.1265 µM): 0.273
- relative viability ([16]; first compound 0.4 µM): 0.311
- relative viability ([16]; first compound 1.265 µM): 0.168
- relative viability ([16]; first compound 4 µM): 0.171
- relative viability ([17]; first compound 0.04 µM): 0.384
- relative viability ([17]; first compound 0.1265 µM): 0.292
- relative viability ([17]; first compound 0.4 µM): 0.306
- relative viability ([17]; first compound 1.265 µM): 0.246
- relative viability ([17]; first compound 4 µM): 0.221
- relative viability ([18]; first compound 0.04 µM): 0.671
- relative viability ([18]; first compound 0.1265 µM): 0.456
- relative viability ([18]; first compound 0.4 µM): 0.559
- relative viability ([18]; first compound 1.265 µM): 0.281
- relative viability ([18]; first compound 4 µM): 0.29
- relative viability ([19]; first compound 0.04 µM): 0.791
- relative viability ([19]; first compound 0.1265 µM): 0.593
- relative viability ([19]; first compound 0.4 µM): 0.587
- relative viability ([19]; first compound 1.265 µM): 0.554
- relative viability ([19]; first compound 4 µM): 0.504
- relative viability ([20]; first compound 0.04 µM): 0.896
- relative viability ([20]; first compound 0.1265 µM): 0.906
- relative viability ([20]; first compound 0.4 µM): 0.645
- relative viability ([20]; first compound 1.265 µM): 0.694
- relative viability ([20]; first compound 4 µM): 0.352
- relative viability ([21]; first compound 0.04 µM): 0.364
- relative viability ([21]; first compound 0.1265 µM): 0.419
- relative viability ([21]; first compound 0.4 µM): 0.366
- relative viability ([21]; first compound 1.265 µM): 0.319
- relative viability ([21]; first compound 4 µM): 0.248
- relative viability ([22]; first compound 0.04 µM): 0.182
- relative viability ([22]; first compound 0.1265 µM): 0.262
- relative viability ([22]; first compound 0.4 µM): 0.279
- relative viability ([22]; first compound 1.265 µM): 0.183
- relative viability ([22]; first compound 4 µM): 0.209
